Data as given in the NIST ThermoML archive (doi:10.1016/j.fluid.2009.04.021).

Conditions: 101.33 kPa, Liquid, Buoyancy - hydrostatic balance

CCCCCCn1cc[n+](C)c1.F[B-](F)(F)F [1-hexyl-3-methylimidazolium tetrafluoroborate]
Conditions	mass density [kg/m3]
283.61 K	1166.71
288.57 K	1163.12
293.48 K	1159.99
298.22 K	1156.57
303.11 K	1152.91
308.16 K	1149.26
313.25 K	1146.23
318.33 K	1142.64
323 K	1139.57
328.63 K	1135.72
333.69 K	1132.53
338.15 K	1129.41
343.04 K	1126.12
348.26 K	1122.71
352.72 K	1119.68

CCCCn1cc[n+](C)c1.F[B-](F)(F)F [1-butyl-3-methylimidazolium tetrafluoroborate]
Conditions	mass density [kg/m3]
281.45 K	1213.36
283.01 K	1212.07
288.41 K	1207.87
288.49 K	1207.91
293.2 K	1204.14
293.49 K	1204.59
298.19 K	1200.74
298.29 K	1200.69
303.04 K	1197.96
303.25 K	1196.93
308.02 K	1192.73
308.14 K	1193.22
312.86 K	1190.14
313.44 K	1190.35
318.17 K	1187.07
318.18 K	1185.49
323.04 K	1183.15
323.06 K	1184.13
327.58 K	1180.59
328.06 K	1179.55
332.87 K	1175.86
333.24 K	1177.1
337.9 K	1173.42
337.97 K	1172.99
342.78 K	1169.84
343.45 K	1170.2
347.5 K	1166.66
348.11 K	1166.78
350.81 K	1165.3
352.74 K	1163.68

CCn1cc[n+](C)c1.F[B-](F)(F)F [1-ethyl-3-methylimidazolium tetrafluoroborate]
Conditions	mass density [kg/m3]
293.41 K	1287.17
298.14 K	1283.2
303.08 K	1279.88
307.94 K	1275.06
313 K	1271.88
318.7 K	1267.21
322.5 K	1265.05
328.4 K	1260.59
332.78 K	1257.46
338.22 K	1254.07
343.05 K	1251.15
347.97 K	1247.07
353.07 K	1243.6
